Data as given in patent US10006057B2, “Recombinant yeast having enhanced gamma valerolactone tolerance and methods of use” (Wisconsin Alumni Research Foundation, priority 2014, dated 2018).
Entries after “also recorded” stand apart in the source; their conditions may differ.

Key:
Format in all cases: cell-based, Saccharomyces cerevisiae
yeast [1] = assay: IC50 determination, growth inhibition (strain not stated at the result); conditions: FIG. 6B; p<0.001
Experimental: (§1) Compounds tested were purchased from Sigma. Cells of S. cerevisiae (MATα pdr1Δ::natMX pdr3Δ::KI.URA3 snq2Δ::KI.LEU2 can1Δ::STE2pr-Sp_his5 lyp1Δ his3Δ1 leu2Δ0 ura3Δ0 met15Δ0), referred to as control strain, were grown in 200 μl cultures at 30° C. in YPD, with a drug or DMSO control. Plates were read on a TECAN M1000 over a 48 h growth period. The specific growth rate was calculated using GCAT analysis software (available at gcat3-pub.glbrc.org on the world wide web). When presented, IC50 values for growth inhibition were calculated from triplicate 8 point dose curves and SigmaPlot 12.0. When presented, error bars are Mean±Standard error of at least 3 replicates.

yeast [2] = assay: 4-vinylphenol-GVL synergy, growth; conditions: FIG. 6C; p<0.01
S. cerevisiae = assay: 8 point dose curve for chemical genomic profiling; conditions: YP-galactose media, 24 hours of growth
Experimental: Chemical genomic analysis of poacic acid was performed as described as described previously. The tested yeast deletion collection had ˜4000 strains using the genetic background described in Andrusiak (2012). The optimal inhibitory concentration of poacic acid for chemical genomic profiling (70-80% growth versus solvent control in YP-galactose media after 24 hours of growth) was determined using an 8 point dose curve. A concentration of 88 μg/ml inhibited growth within this range. 200 μl cultures of the pooled, deletion collection of S. cerevisiae deletion mutants were grown with 88 μg/ml poacic acid or a DMSO control in triplicate for 48 h at 30° C. Genomic DNA was extracted using the Epicentre MasterPure™ Yeast DNA purification kit. Mutant-specific molecular barcodes were amplified with specially designed multiplex primers. The barcodes were sequenced using an Illumina MiSeq. 3 replicates of each condition (poacic acid vs DMSO) were sequenced. One DMSO control was lost due to poor sequencing reads. The barcode counts for each yeast deletion mutant in the presence of poacic acid were normalized against the DMSO control conditions to define sensitivity or resistance of individual strains. To determine a p-value for each top sensitive and resistant mutant, we used the EdgeR package. […]

[3] = system: FDC1 deletion mutant in the standard lab strain background; assay: GVL IC50, growth inhibition; conditions: single mutant validation; FIG. 4B
Experimental: as §1

[4] = system: PAD1 deletion mutant in the standard lab strain background; assay: GVL IC50, growth inhibition; conditions: single mutant validation; FIG. 4B
Experimental: as §1

Y133 pad1Δfdc1Δ [5] = assay: IC50 / tolerance, growth inhibition; conditions: FIG. 5C; p<0.01
Y133 + pPAD1 = assay: GVL IC50, single mutant cultures; conditions: FIG. 4D
Source text: We wanted to extend our chemical genomic analysis to industrially an industrially relevant, xylose ferment yeast strain. Presently there are no available genome-wide deletion mutant collections in industrial yeast, so we took a complementary approach. The MoBY-ORF 2.0 plasmid collection is with barcoded versions of 95% of all S. cerevisiae genes each expressed on a 2μ plasmid. This collection of plasmids can be pooled and transformed into any yeast to allow investigations of the effect of gene dose under stress conditions. We transformed a version of the xylose-fermenting yeast GLBRC-Y133 [15] en masse with the pooled plasmid collection and selected over 50K individual transformants (10× genome coverage). We grew this pooled transformant collection in the presence of 2.5% GVL or a water control under anaerobic conditions in glucose/xylose containing media and assessed the effects of increased gene dose on growth in the presence of GVL. We found the Pad1p overexpression mutant was one of the top sensitive strains (p<0.01, FIG. 4C). […]
(§2) Compounds tested were purchased from Sigma. […] Plates were read on a TECAN M1000 over a 48 h growth period. The specific growth rate was calculated using GCAT analysis software (available at gcat3-pub.glbrc.org on the world wide web). When presented, IC50 values for growth inhibition were calculated from triplicate 8 point dose curves and SigmaPlot 12.0. […]

[6] = system: deletion mutants of SEC28, VPS38, DID2; assay: Single mutant validation of GVL sensitivity; conditions: single mutant cultures; FIG. 2C
Source text: Among the top 10 sensitive deletion mutants, we found significant enrichment for genes involved in late endosome to vacuole transport (p<0.01, FIG. 2B), driven by deletion mutants of SEC28, VPS38, DID2. […] Deletion mutants of these 3 genes have increased sensitivity to ethanol, heat, and membrane disrupting agents such as miconazole and nigercin. When we correlated the chemical genomic profile of GVL with the yeast genetic interaction network, we found significant enrichment for genes involved in golgi-vesicle mediated transport among the top 10 correlations (p=0.001). RET2 was consistently predicted as the top correlation for the GVL chemical genomic profile. Ret2p is a subunit of the coatomer complex involved in retrograde transport between Golgi and ER is also involved in golgi transport of vesicles. RET2 mutants similarity show increased sensitivity to heat and membrane disrupting agents.
as §2

[7] = system: membrane integrity of yeast cells; assay: Cell leakage assay (dye uptake, flow cytometry); conditions: dye uptake after treatment; FIG. 3A, B
Source text: To confirm if GVL treatment can rapidly affect cell integrity, we assessed cell permeability after GVL treatment. […] Given that both GVL and ethanol can damage cellular membranes, we also tested if these compounds are synergistic.
A FungaLight™ cell viability assay (Invitrogen L34952) was used to determine if poacic acid caused membrane damage we used using a Guava Flow Cytometer (Millipore, USA). The population of stained cells (damaged integrity) vs non-stained cells can be determined by flow cytometry. Caspofungin (50 ng/ml) was included as a positive control. MMS and DMSO were included as a non-cell wall targeting and solvent control respectively. To test the effects of the compounds on both active and arrested cells, log-phase cultures were washed with 1×PBS and resuspended to an OD of 0.5 in either YPD media or YP (no carbon source) in the presence of the drugs (n=3) for 4 hours at 30° C. The cells were then stained and immediately read by flow cytometry. A one-way ANOVA and Tukey's test was used to calculate the difference between drug treatments among cells with arrested growth.

lab strain = assay: GVL-ethanol synergy, growth; conditions: FIG. 3C
Experimental: (§3) To test for synergy, a 6×6 dose matrix was initially used to identify potentially synergistic dose combinations, these points were then confirmed in triplicate. 200 μl cultures were grown with combinations of with poacic acid (125 μg/ml), caspofungin (12.5 ng/ml) and fluconazole (3.8 μg/ml) and the relevant single agent and solvent controls their OD measured after 24 h. Synergy was determined by comparing actual optical density in the presence of compound combinations to an expected value calculated using the multiplicative hypothesis. This assumes that, in the absence of an interaction, each compound would decrease the OD of the cell culture by the same fraction in the presence of the other compound as it does when applied alone, i.e., E=A*B/C, where E is the expected OD, A is OD when compound A is applied alone, B is OD when compound B is applied alone, and C is OD of the control culture (DMSO). In the presence of synergy, the actual OD value is lower than the expected OD. A paired t-test was used to confirm statistical significance of this difference in 3 replicates of the experiment.
(§4) The synergistic interaction between GVL and ethanol was initially discovered using a 6-point dose matrix of the two compounds. We identified the points of the greatest synergy and perform triplicate growth curves of GLBRY-128 using a TECAN M1000 microplate reader. To confirm the GVL-R1 strain was less sensitive to the synergism between GVL and ethanol, used a 6-point dose matrix as described above with both GLBRCY-128 or GVL-R1 in a TECAN microplate reader for 48 hours at 30° C. Data from the most synergistic combination is presented (2% GVL-5% ethanol).

xylose fermenting strain = assay: GVL-ethanol synergy, growth; conditions: FIG. 3C
Experimental: as §3, §4

Y133 background strain = assay: Growth and sugar conversion in synthetic hydrolysate with 1% GVL; conditions: anaerobic, synthetic hydrolysate containing 1% GVL; FIG. 5D
Experimental: (§5) 6 25-mL anaerobic flasks were prepared with Synthetic hydrolysate (SynH) (6% glucose/3% xylose)+1% GVL, pH 5.0. Flasks were inoculated with rinsed 133 or 133 pad1Δfdc1Δ cells to bring the initial OD to approximately 0.1. The tubes were grown for 72 hours with agitation anaerobically at 30° C. 1 mL samples were taken every 24 hours. Initial and daily samples were measured for OD and submitted for HPLC analysis to quantify sugar consumption and ethanol production.

Y133 pad1Δfdc1Δ [8] = assay: as above; conditions: anaerobic, synthetic hydrolysate containing 1% GVL; FIG. 5D
Experimental: as §5

## C=Cc1ccc(O)cc1 [4-vinylphenol]
Yeast [1]
  IC50 / toxicity of 4-vinylphenol relative to coumaric acid: significantly more toxic; also recorded: an order of magnitude lower
Yeast [2]
  synergistic interaction between 4-vinylphenol and GVL: significantly synergistic; also recorded: statistically significant synergistic interaction

## poacic acid
S. cerevisiae
  concentration giving 70-80% growth versus solvent control: 88 µg/mL

## CC1CCC(=O)O1 (centres unmarked) [GVL, gamma valerolactone]
[3]
  GVL tolerance of deletion mutant: more tolerant; also recorded: improved GVL tolerance
[4]
  GVL tolerance of deletion mutant: more tolerant; also recorded: improved GVL tolerance
Y133 pad1Δfdc1Δ [5]
  IC50 concentration / tolerance of GVL versus Y133 background: significantly greater; also recorded: significantly higher
Y133 + pPAD1
  GVL tolerance with increased expression of PAD1: significantly reduced GVL tolerance
[6]
  GVL IC50 / sensitivity compared to the control strain: significantly more sensitive; also recorded: lower IC50
[7]
  GVL concentration at which loss of membrane integrity is apparent: 2.5%
Lab strain
  synergism between GVL and ethanol: strong synergism
Xylose fermenting strain; 1% GVL and 4% ethanol, p<0.01
  synergistic interaction between GVL and ethanol: significantly synergistic; also recorded: significant synergistic interaction
Xylose fermenting strain; xylose fermenting strain
  synergism between GVL and ethanol: strong synergism
Y133 background strain
  growth, sugar consumption and ethanol production in presence of GVL: did not
Y133 pad1Δfdc1Δ [8]
  growth, sugar consumption and ethanol production in presence of GVL: faster growth, sugar consumption, and ethanol production; also recorded: grew, consumed sugars, and produced ethanol
